Experiment in all cases: NCI tumour cell line growth inhibition, 48 h
Experiment [1] has as its system PC-3 prostate.
The test system of experiment [2] is BT-549 breast.
The subject of experiment [3] is HT29 colon.
For experiment [4], the system named is CCRF-CEM leukemia.
Experiment [5] deals with MOLT-4 leukemia.
Experiment [6] concerns K-562 leukemia.
Experiment [7] concerns NCI-H460 lung.
Experiment [8] deals with T-47D breast.
Experiment [9] relates to OVCAR-4 ovarian.
Experiment [10] concerns HS 578T breast.

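Step 1: Grow cells in 96-well plates. Step 2: Expose to compound for 48 hours at 5 concentrations. Step 3: Interpolate endpoints linearly; if unreached, use highest concentration. TGI: concentration producing complete growth inhibition.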

In the case of `CCOP(=O)(/C=C/n1cc(C)c(=O)[nH]c1=O)OCC`, the TGI in experiment [1], in experiment [2], in experiment [3], in [4], in experiment [5] and in [6] was > 100 µM in each case. In addition, the TGI in experiment [7], in [8] and in [9] was > 100 µM throughout.

Turning to `O=C1c2ccccc2-c2nc3ccncc3n21`, the TGI in [1], in experiment [2], in experiment [3], in experiment [4], in [5] and in experiment [6] was > 100 µM each time. Moreover, the TGI in experiment [7] and in experiment [9] was > 100 µM in each case.

Turning to `COc1ccccc1NC(=O)C(=O)C(C(=O)c1ccccc1F)C1OC(=O)c2ccccc21` (centres undefined), the TGI is 62.5 µM in [3]; 67 µM in [4]; > 100 µM in experiment [5]; > 100 µM in experiment [6]; 74.7 µM in experiment [7]; > 100 µM in [9].

As for `C[s+]1c2ccccc2c2ccccc21`, the TGI in [3], in [4], in experiment [5], in experiment [6], in [7] and in experiment [9] was > 100 µM throughout.

For the molecule `COc1cc2c[n+]3c4c(c2c(OC)c1OC)CCCC4CC3` (centres undefined), the TGI is > 100 µM in experiment [1]; > 100 µM in experiment [3]; > 100 µM in experiment [4]; > 100 µM in experiment [5]; > 100 µM in [6]; 62.3 µM in [10]. In addition, the TGI in experiment [7], in [8] and in experiment [9] was > 100 µM in each case.

Take `C/C(=C1\N=C(c2ccccc2)OC1=O)c1ccccc1`: the TGI in experiment [1], in [3], in [4], in experiment [5], in experiment [6] and in [10] was > 100 µM each time. The TGI in [7], in experiment [8] and in experiment [9] was > 100 µM each time.

As to `COc1ccc(-c2ccc(C(=O)C=P(c3ccccc3)(c3ccccc3)c3ccccc3)cc2)cc1`, the TGI in [1] was 49 µM; in experiment [3], 19.4 µM; in experiment [4] it was > 100 µM; in experiment [5], 10.9 µM; in experiment [6], 20.6 µM; in [10], 67.6 µM. Also, the results for the TGI in experiment [7], in [8] and in [9] were 20.5 µM, 62.3 µM and 25 µM, respectively.

Take `CSC(SC)=C(C(=O)c1ccc(Cl)cc1)n1c(=O)sc2cc(Br)ccc21`: the TGI in experiment [1], in experiment [3], in experiment [4], in [5], in experiment [6] and in experiment [10] was > 100 µM in each case. Further, the TGI in [7], in experiment [8] and in [9] was > 100 µM throughout.

As to `CCOc1ccc2nc(NC(=O)C(=O)C(C(=O)c3ccccc3F)C3OC(=O)c4ccccc43)sc2c1` (centres undefined), the TGI was 40.1 µM in experiment [4]; > 100 µM in experiment [5]; > 100 µM in experiment [6]; 39.5 µM in [7]; 77.6 µM in [9].

Take `COC1(CC[C@@H](C)COC2OC(CO)C(O)C(O)C2O)OC2C[C@H]3[C@@H]4CC[C@H]5C[C@@H](OC6OC(CO)C(OC7OC(CO)C(O)C(O)C7O)C(O)C6OC6OC(C)C(O)C(O)C6O)[C@H](O)C[C@]5(C)[C@H]4CC[C@]3(C)C2[C@@H]1C` (some centres undefined): the TGI in experiment [1] worked out at 3.45 µM; in experiment [3], 4.99 µM; in experiment [4], 3.9 µM; in experiment [5] it was 8.14 µM; in experiment [6] it was 7.81 µM; in experiment [10], 7.25 µM. Moreover, the TGI in experiment [7] turned out to be 9.43 µM; in experiment [8], 9.01 µM; in [9] it was 3.96 µM.

As for `CC1=NN(C(=O)CC(=O)Nc2cccc(C)c2)C(=O)C1N=Nc1ccc(S(=O)(=O)CCOS(=O)(=O)O)cc1` (centres undefined), the TGI in [1] is 11.2 µM; in experiment [3] it was 11.5 µM; in experiment [4], > 100 µM; in experiment [5], > 31.7 µM; in [6], > 100 µM; in experiment [10], 15.3 µM. For the same molecule, the TGI in [7] is 11.8 µM; in experiment [8] it was > 49.5 µM; in [9], 27 µM.

With `N#Cc1ccccc1NC(=O)C(=O)C(C(=O)c1ccccc1F)C1OC(=O)c2ccccc21` (centres undefined), the TGI in experiment [3] was > 100 µM; in [4], 37.9 µM; in experiment [5], > 100 µM; in experiment [6] it was > 100 µM; in experiment [7], > 100 µM; in experiment [9], > 100 µM.

For the molecule `Nc1c(C(=O)c2ccc(Cl)c(Cl)c2)[nH]c(NCc2ccccc2)c1C(=S)Nc1ccccc1`, the TGI in experiment [1] is 30.5 µM; in experiment [2], 30.5 µM; in experiment [3], 11 µM; in experiment [5], > 100 µM; in experiment [6], > 100 µM; in [7], 20.7 µM. The TGI in experiment [8] amounted to 81.2 µM; in [9] it was 15.8 µM.

Take `CN(CCCCCl)P(=O)(OCc1ccc([N+](=O)[O-])o1)OCC1OC(n2ccc(N)nc2=O)C(O)C1O` (centres undefined): the TGI is 43 µM in experiment [1]; 41.4 µM in experiment [3]; 11 µM in experiment [5]; > 100 µM in [6]; 6.46 µM in experiment [10]; 68.3 µM in [7]. Besides, the TGI in [8] was determined as 7.71 µM; in experiment [9], 29.1 µM.

In the case of `CCCCCC[C@H]([C@H](C)O)n1cnc2c(N)ncnc21`, the TGI in [1], in experiment [3], in experiment [4], in [5], in [6] and in experiment [10] was > 100 µM each time. The TGI in [7], in experiment [8] and in experiment [9] was > 100 µM in each case.

Values taken from PubChem BioAssay (NCI).
